{
  "source": "patent US9518078B2",
  "about": "“Disaccharide synthetic lipid compounds and uses thereof” (AVANTI POLAR LIPIDS, INC., priority 2012, dated 2016)",
  "key": {"[1]": {"test_system": "murine parental cell line (mTLR)", "assay": "Negative control: murine parental HEK-293 cell line transfected only with the reporter gene", "format": "cell-based, mouse", "settings": "parental HEK-293, 18 h", "description": "(§1) HEK-293 cell lines engineered to functionally over-express human or murine TLR-4 receptor were utilized in the experiments below. These cells also contain a reporter gene (a secreted alkaline phosphatase) under the control of a NFκB inducible promoter. TLR-4 activation results are given as optical density (OD) values after 18 hours stimulation of the designated HEK-293 cell lines.\n(§2) Samples and controls are tested in duplicate on recombinant HEK-293 cell lines. The negative controls for the assay were the parental HEK-293 cell lines transfected only with the reporter gene. Negative control cells were stimulated with TNF-α, an inducer of NFκB activity. The positive controls for the assay were HEK-293 cells transfected with human TLR-4 (hTLR-4) or mouse TLR-4 (mTLR-4) along with the reporter construct and activated with LPS 0111 (obtained from E. coli 0111:B4 strain) from 100 ng/ml to 0.01 ng/ml or with LPS K12 (obtained from E. coli K12 strain) from 100 ng/ml to 0.01 ng/ml.\nAnother synthetic disaccharide lipid compound used in this assay in an independent experiment was the compound of the structure X (referred to herein as MPLA-D). […] Test compounds were used at the following concentrations: 5.71 μM/570 nM/171 nM/57 nM/17 nM/5.7 nM/well to stimulate in duplicate mTLR4 expressing cell lines.\n(§3) Another synthetic disaccharide lipid compound used in this assay in an independent experiment, was the compound of the structure XV (referred to herein as MPLA-C). […] Test compounds were used at the following concentrations: 5.7 μM/570 nM/171 nM/57 nM/17 nM/5.7 nM/well to stimulate in duplicate hTLR4 and mTLR4 expressing cell lines."}, "human TLR-4 receptor": {"target": "T1, human TLR-4 receptor (Homo sapiens, UniProt O00206+Q9Y6Y9)", "T1 construct": "expressed in transfected cells; host or cells: HEK-293", "T1 sequence (O00206 24-839)": "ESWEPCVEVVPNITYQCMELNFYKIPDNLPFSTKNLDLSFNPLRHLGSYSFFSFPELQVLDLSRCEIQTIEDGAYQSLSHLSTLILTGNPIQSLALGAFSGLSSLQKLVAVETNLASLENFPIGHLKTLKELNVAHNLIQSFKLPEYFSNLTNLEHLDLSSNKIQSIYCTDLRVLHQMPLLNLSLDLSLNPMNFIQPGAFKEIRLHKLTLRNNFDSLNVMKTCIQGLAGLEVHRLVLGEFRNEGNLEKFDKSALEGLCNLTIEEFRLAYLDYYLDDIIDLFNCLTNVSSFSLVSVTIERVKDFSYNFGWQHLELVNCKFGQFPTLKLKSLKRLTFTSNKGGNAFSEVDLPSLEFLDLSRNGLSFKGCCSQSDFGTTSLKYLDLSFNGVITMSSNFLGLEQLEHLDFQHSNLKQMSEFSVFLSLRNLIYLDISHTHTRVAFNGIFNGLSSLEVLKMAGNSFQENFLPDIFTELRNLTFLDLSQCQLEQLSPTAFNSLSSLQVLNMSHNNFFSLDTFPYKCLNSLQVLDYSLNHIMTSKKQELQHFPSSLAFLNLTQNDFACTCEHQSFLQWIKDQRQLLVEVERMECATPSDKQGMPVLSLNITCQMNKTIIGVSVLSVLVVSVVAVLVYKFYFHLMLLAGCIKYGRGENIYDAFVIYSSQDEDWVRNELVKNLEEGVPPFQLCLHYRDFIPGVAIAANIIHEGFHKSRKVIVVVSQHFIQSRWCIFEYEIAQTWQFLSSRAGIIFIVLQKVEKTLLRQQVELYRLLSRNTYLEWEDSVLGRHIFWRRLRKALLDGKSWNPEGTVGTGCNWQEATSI", "T1 sequence (Q9Y6Y9 17-160 limits assumed)": "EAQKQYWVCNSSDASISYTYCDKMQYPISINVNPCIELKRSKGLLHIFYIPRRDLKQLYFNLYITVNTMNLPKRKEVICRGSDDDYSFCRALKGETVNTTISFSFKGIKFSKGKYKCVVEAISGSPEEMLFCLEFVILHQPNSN", "assay": "NFκB-inducible secreted alkaline phosphatase reporter in HEK-293 cells over-expressing human TLR-4", "format": "cell-based", "settings": "hTLR-4 HEK-293, 18 h", "description": "as §1, §2, §3"}},
  "note": "Values joined by “and” are separate entries in the source; they are usually repeats but may differ in a detail not shown here. Identical values can stand only once.",
  "data": [
    {"substance": "TNF-α", "values": [
      {"measurement": "NFκB reporter, optical density (OD), negative control cells", "setting": "[1]; 0.3 ng/ml", "value": "0.035 OD and 0.025 OD and 0.027 OD"},
      {"measurement": "NFκB reporter, optical density (OD), negative control cells", "setting": "[1]; 3 ng/ml", "value": "0.033 OD and 0.027 OD and 0.024 OD"},
      {"measurement": "NFκB reporter, optical density (OD), negative control cells", "setting": "[1]; 30 ng/ml", "value": "3.586 OD and 3.502 OD and 3.663 OD"},
      {"measurement": "TLR-4 activation, optical density (OD)", "setting": "human TLR-4 receptor; 0.1 ng/ml", "value": 0.275, "unit": "OD"},
      {"measurement": "TLR-4 activation, optical density (OD)", "setting": "human TLR-4 receptor; 0.3 ng/ml", "value": 0.577, "unit": "OD"},
      {"measurement": "TLR-4 activation, optical density (OD)", "setting": "human TLR-4 receptor; 1 ng/ml", "value": 0.899, "unit": "OD"},
      {"measurement": "TLR-4 activation, optical density (OD)", "setting": "human TLR-4 receptor; 3 ng/ml", "value": 1.135, "unit": "OD"},
      {"measurement": "TLR-4 activation, optical density (OD)", "setting": "human TLR-4 receptor; 10 ng/ml", "value": 1.262, "unit": "OD"},
      {"measurement": "TLR-4 activation, optical density (OD)", "setting": "human TLR-4 receptor; 30 ng/ml", "value": 1.387, "unit": "OD"}
    ]}
  ]
}
